This is an account of results in patent US5387709A, “Substituted sulfonamides, process of preparation and medicines containing same” (Lipha Lyonnaise Industrielle Pharmaceutique, priority 1990, dated 1995).

The structures appear in SMILES notation. pIC50: −log10 of the molar value.

One test has as its system platelets of guinea-pig. Description: Inhibition of the platelet aggregation induced by U46619 (BORN test), guinea-pig platelets. Type of test: cell-based. The conditions noted are these: Cavia porcellus, Platelet, read-out: PLATELET AGGREGATION GUINEA-PIG IC 50. The text has this: (A) Inhibition of the platelet aggregation induced by U46619, a stable analogue of TXA2 (9,11-dideoxy-11α,9α-epoxymethanoprostaglandine F2 α):
The tests determine a concentration of compound which inhibits at 50% (CI50) a liminar aggregation induced by U46619. The activities of the compounds of the present invention are given in example 108.
(§1) The products of examples 1 to 107 have been tested for platelet aggregation on guinea-pig and on the contraction of the aorta in rat as described previously.

The test system of the next test is rat aorta. Description: Inhibition of the U46619 induced rat aorta vasoconstriction. Type of test: cell-based. The conditions noted are these: Rattus norvegicus, contraction by U46619 (142 nM), rat thoracic aorta, 37° C.; read-out: VASOCONSTRICTION RAT AORTA IC 50. The procedure:
(B) Inhibition of the U46619 induced rat aorta vasoconstriction:
male rats weighing about 300 g are put to death by euthanasia; the thoracic aorta is rapidly taken out. A sample of about 1 cm is cut into a spiral, and placed in a vat containing 20 ml of nutrient medium (Krebs-Henseleit) kept a 37° C. and oxygenated (O2 95%, CO2 5%). The contractions are recorded with an isotonic strain gauge. After a rest of 45 mn, supramaximum contractions are provoked by the addition of an analogue of TXA2 (U46619: 142 nM) to the survival medium. A plateau is generally reached after 10 mn of contact, the latter not exceeding 25 mn. A rest of 30 mn and a plurality of rinses take place after each contraction. The products are added 10 mn after U46619 and allowed to rest 15 mn, after which delay the inhibition is measured. The inhibitory concentration 50 (IC) is determined for each compound studied and on a minimum of 3 aortas. The activities of the compounds of the present invention are described in example 108.
as §1

On to `O=C(O)Cc1ccc(CC2(CNS(=O)(=O)c3ccc(Cl)cc3)CCCCCC2)cc1` [Example 73, 4-[[1-[[[(4-Chlorophenyl]sulfonyl]amino]methyl]cycloheptyl]methyl]benzeneacetic acid], for which the pIC50 in the test on platelets of guinea-pig is 6.15; in the test on rat aorta it was 6.70.

Consider `O=C(Cc1ccc(CC2(CNS(=O)(=O)c3ccc(Cl)cc3)CCCC2)cc1)N1CCOCC1` [Example 74, 4-Chloro-N-[[1-[[4-[2-(morpholin-4-yl)-2-oxoethyl]phenyl]methyl]cyclopentyl]methyl]benzenesulfonamide], for which the figures for the pIC50 with platelets of guinea-pig and with rat aorta were less than 5.30 and less than 6.00, respectively.

Take `NC(=O)Cc1ccc(CC2(CNS(=O)(=O)c3ccc(Cl)cc3)CCCC2)cc1` [Example 75, 4-[[1-[[[(4-Chlorophenyl)sulfonyl]amino]methyl]cyclopentyl]methyl]benzeneacetamide]: the pIC50 is less than 5.30 with platelets of guinea-pig and less than 6.00 in the test on rat aorta.

Regarding `O=C(O)CCNC(=O)Cc1ccc(CC2(CNS(=O)(=O)c3ccc(Cl)cc3)CCCC2)cc1` [Example 76, 3-[[2-[4-[[1-[[[(4-Chlorophenyl)sulfonyl]amino]methyl]cyclopentyl]methyl]phenyl]-1-oxoethyl]amino]propanoic acid], the pIC50 in the test on platelets of guinea-pig is 5.54; in the test with rat aorta, less than 6.00.

For the molecule `CCOC(=O)Cc1ccc(CC2(CNS(=O)(=O)c3ccc(Cl)cc3)CCCC2)cc1` [Example 77, Ethyl 4-[[1-[[[(4-chlorophenyl)sulfonyl]amino]methyl]cyclopentyl]methyl]benzeneacetate], the pIC50 is 5.62 with platelets of guinea-pig and less than 6.00 with rat aorta.

As to `CCN(CC)CCOC(=O)Cc1ccc(CC2(CNS(=O)(=O)c3ccc(Cl)cc3)CCCC2)cc1` [Example 79, 2-(Diethylamino)ethyl 4-[[1-[[[(4-Chlorophenyl)sulfonyl]amino]methyl]cyclopentyl]methyl]benzeneacetate], the results for the pIC50 in the test on platelets of guinea-pig and in the test with rat aorta were 7.00 and 6.77, respectively.

With `O=S(=O)(O)Cc1ccc(CC2(CNS(=O)(=O)c3ccc(Cl)cc3)CCCC2)cc1` [Example 80, 4-[[1-[[[(4-Chlorophenyl)sulfonyl]amino]methyl]cyclopentyl]methyl]benzenemethanesulfonic acid], the pIC50 in the test on platelets of guinea-pig is 5.54; in the test on rat aorta, 6.72.

Consider `O=S(=O)(NCC1(Cc2ccc(Cc3nnn[nH]3)cc2)CCCC1)c1ccc(Cl)cc1` [Example 81, 4-Chloro-N-[1-[[[4-[(1H-tetrazol-5-yl)methyl]phenyl]methyl]cyclopentyl]methyl]benzenesulfonamide], for which the pIC50 in the test with platelets of guinea-pig was 5.80; in the test on rat aorta it was 7.22.

For the molecule `Nc1ccc(S(=O)(=O)NCC2(Cc3ccc(Cc4nnn[nH]4)cc3)CCCC2)cc1` [Example 82, 4-Amino-N-[1-[[[4-[(1H-tetrazol-5-yl)methyl]phenyl]methyl]cyclopentyl]methyl]benzenesulfonamide], the values for the pIC50 in the test on platelets of guinea-pig and with rat aorta were 5.70 and 6.00, respectively.

In the case of `O=P(O)(O)Cc1ccc(CC2(CNS(=O)(=O)c3ccc(Cl)cc3)CCCC2)cc1` [Example 83, [[4-[[1-[[[(4-Chlorophenyl)sulfonyl]amino]methyl]cyclopentyl]methyl]phenyl]methyl]phosphonic acid], the figures for the pIC50 in the test on platelets of guinea-pig and in the test on rat aorta were 6.03 and 6.00, respectively.

As for `C[S+]([O-])c1ccc(S(=O)(=O)NCC2(Cc3ccc(CC(=O)O)cc3)CCCC2)cc1` (stereo not shown) [Example 84, 4-[[1-[[[(4-Methylsulfinylphenyl)sulfonyl]amino]methyl]cyclopentyl]methyl]benzeneacetic acid], the values for the pIC50 in the test with platelets of guinea-pig and with rat aorta were less than 5.30 and 6.00, respectively.

Consider `CC(=O)Nc1ccc(S(=O)(=O)NCC2(Cc3ccc(CC(=O)O)cc3)CCCC2)cc1` [Example 85, 4-[[1-[[[(4-acetamidophenyl)sulfonyl]amino]methyl]cyclopentyl]methyl]benzeneacetic acid], for which the pIC50 with platelets of guinea-pig was 5.89; in the test with rat aorta, less than 6.00.

Consider `Nc1ccc(S(=O)(=O)NCC2(Cc3ccc(CC(=O)O)cc3)CCCC2)cc1` [Example 86, 4-[[1-[[[(4-Aminophenyl)sulfonyl]amino]methyl]cyclopentyl]methyl]benzeneacetic acid], for which the pIC50 is 6.29 in the test with platelets of guinea-pig and 6.00 with rat aorta.

Take `O=C(O)Cc1ccc(CC2(CNS(=O)(=O)c3ccc(Cl)cc3)CCCCC2)cc1` [Example 87, 4-[[1-[[[(4-Chlorophenyl)sulfonyl]amino]methyl]cyclohexyl]methyl]benzeneacetic acid]: the pIC50 in the test with platelets of guinea-pig is 5.40; with rat aorta, 6.22.

In the case of `O=C(O)Cc1ccc(CC2(CNS(=O)(=O)c3ccc(Cl)cc3)CCOCC2)cc1` [Example 88, 4-[[4-[[[(4-Chlorophenyl)sulfonyl]amino]methyl]tetrahydropyran-4-yl]methyl]benzeneacetic acid], the values for the pIC50 in the test with platelets of guinea-pig and in the test on rat aorta were 6.51 and 6.00, respectively.

With `CC1(C)CC(CNS(=O)(=O)c2ccc(Cl)cc2)(Cc2ccc(CC(=O)O)cc2)C1` [Example 89, 4-[[1-[[[(4-Chlorophenyl)sulfonyl]amino]methyl]-3,3-dimethylcyclobutyl]methyl]benzeneacetic acid], the pIC50 in the test with platelets of guinea-pig is 6.59; in the test on rat aorta, 7.52.

As to `CC1(C)C(C)(C)C1(CNS(=O)(=O)c1ccc(Cl)cc1)Cc1ccc(CC(=O)O)cc1` [Example 90, 4-[[1-[[[(4-Chlorophenyl)sulfonyl]amino]methyl]-2,2,3,3-tetramethylcyclopropyl]methyl]benzeneacetic acid], the pIC50 is less than 5.30 in the test on platelets of guinea-pig and less than 6.00 in the test on rat aorta.

`O=C(O)Cc1ccc(CC2(CNS(=O)(=O)c3ccc(Cl)cc3)CCC(=O)CC2)cc1` [Example 91, 4-[[1-[[[(4-Chlorophenyl)sulfonyl]amino]methyl]-4-oxocyclohexyl]methyl]benzeneacetic acid]: the pIC50 with platelets of guinea-pig was 5.51; in the test on rat aorta, 6.00.

Take `O=C(O)Cc1ccccc1CC1(CNS(=O)(=O)c2ccc(Cl)cc2)CCCC1` [Example 92, 2-[[1-[[[(4-Chlorophenyl)sulfonyl]amino]methyl]cyclopentyl]methyl]benzeneacetic acid]: the pIC50 is 6.43 in the test on platelets of guinea-pig and 6.00 with rat aorta.

`O=C(O)Cc1cccc(CC2(CNS(=O)(=O)c3ccc(Cl)cc3)CCCC2)c1` [Example 93, 3-[[1-[[[(4-Chlorophenyl)sulfonyl]amino]methyl]cyclopentyl]methyl]benzeneacetic acid]: the figures for the pIC50 with platelets of guinea-pig and in the test with rat aorta were 5.80 and 7.30, respectively.

Regarding `CCCCCCc1ccc(S(=O)(=O)NCC2(Cc3ccc(CC(=O)O)cc3)CCCC2)cc1` [Example 94, 4-[[1-[[[(4 -Hexylphenyl)sulfonyl]amino]methyl]cyclopentyl]methyl]benzeneacetic acid], the results for the pIC50 with platelets of guinea-pig and in the test with rat aorta were 5.74 and less than 6.00, respectively.

`O=C(O)Cc1ccc(CC2(CNS(=O)(=O)c3ccc([N+](=O)[O-])cc3)CCCC2)cc1` [Example 95]: the pIC50 in the test with platelets of guinea-pig is 6.24; in the test on rat aorta, 6.55.

As for `O=C(O)Cc1ccc(CC2(CNS(=O)(=O)c3cccc4ccccc34)CCCC2)cc1` [Example 96, 4-[[1-[[[(Naphthalen-1-yl)sulfonyl]amino]methyl]cyclopentyl]methyl]benzeneacetic acid], the pIC50 in the test with platelets of guinea-pig was 6.12; in the test with rat aorta it was less than 6.00.
